Measurements published in DBAASP.
Values after ≈ are worked out from the molar mass of the structure shown.

Columns and labels:
Test in all cases: ≥ marks a high value that may be exact or a test limit, other limits are often not marked, values filed in µg/mL are converted to µM
[1] = tested on: Escherichia coli PCM 2057
[2] = tested on: Bacillus licheniformis X39
[3] = tested on: Staphylococcus aureus ATCC 2592
[4] = tested on: Psychrobacter faecalis X29
[5] = tested on: Rhodococcus rhodochrous X15
[6] = tested on: Bacillus subtilis IFO 3336
[7] = tested on: Escherichia coli IFO 3301
[8] = tested on: Staphylococcus aureus ATCC 33591
[9] = tested on: Pseudomonas aeruginosa MR3007
[10] = tested on: Staphylococcus aureus 930918-3
[11] = tested on: Streptococcus sobrinus ATCC 33478
[12] = tested on: Streptococcus mitis ATCC 903
[13] = tested on: Escherichia coli W3110
[14] = tested on: Pseudomonas aeruginosa PAK
[15] = tested on: Streptococcus sanguinis NY101
[16] = tested on: Staphylococcus aureus
[17] = tested on: Streptococcus mutans UA159
[18] = tested on: Streptococcus gordonii Challis DL1
[19] = tested on: Enterococcus faecalis

CC[C@H](C)[C@H](NC(=O)[C@H](CC(N)=O)NC(=O)[C@H](C)NC(=O)[C@H](C)N)C(=O)N1CCC[C@H]1C(=O)N[C@@H](Cc1ccccc1)C(=O)N[C@@H](CCCCN)C(=O)N[C@H](C(=O)N[C@@H](Cc1cnc[nH]1)C(=O)N[C@@H](Cc1ccccc1)C(=O)N[C@@H](CCCN=C(N)N)C(=O)N[C@H]1CSSC[C@@H](C(=O)O)NC(=O)[C@H](Cc2ccccc2)NC(=O)[C@H](C)NC(=O)[C@H](C)NC(=O)[C@H](CCCCN)NC1=O)C(C)C [AANIPFKVHFRCKAAFC]
MIC [1]: ≥ 520 µM

CC[C@H](C)[C@@H]1NC(=O)[C@H](CCCCN)NC(=O)[C@@H](NC(=O)[C@@H](NC(=O)[C@@H](NC(=O)[C@H](CCC(N)=O)NC(=O)[C@@H]2CCCN2C(=O)[C@H](CC(C)C)NC(=O)[C@H](Cc2ccccc2)NC(=O)[C@H](CC(N)=O)NC(=O)[C@H](C)NC(=O)[C@@H](NC(=O)[C@@H](NC(=O)CNC(=O)[C@H](C)NC(=O)[C@H](CC(C)C)NC(=O)[C@H](CC(C)C)NC(=O)[C@@H]2CCCN2C(=O)[C@H](CC(C)C)NC(=O)[C@@H](N)Cc2ccccc2)C(C)C)C(C)C)[C@@H](C)CC)[C@@H](C)CC)CSSC[C@@H](C(=O)O)NC(=O)[C@H](CCCCN)NC(=O)[C@H](CCCN=C(N)N)NC(=O)[C@H](C)NC1=O [FLPLLAGVVANFLPQIICKIARKC]
MIC [2]: 9.51 µM (≈ 25 µg/mL)
MIC [3]: 2.4 µM (≈ 6.3 µg/mL)
MIC [4]: 4.76 µM (≈ 12.5 µg/mL)
MIC [5]: 1.18 µM (≈ 3.1 µg/mL)

NCCCC[C@H](NC(=O)[C@H](Cc1cnc[nH]1)NC(=O)[C@H](CCCCN)NC(=O)[C@H](Cc1cnc[nH]1)NC(=O)[C@H](CCCCN)NC(=O)[C@H](Cc1cnc[nH]1)NC(=O)[C@H](CCCCN)NC(=O)[C@H](Cc1cnc[nH]1)NC(=O)[C@@H](N)CCCCN)C(=O)N[C@@H](Cc1cnc[nH]1)C(=O)O [KHKHKHKHKH]
MIC [6]: 7.44 µM (≈ 10 µg/mL)
MIC [7]: 7.44 µM (≈ 10 µg/mL)

CC[C@H](C)[C@H](NC(=O)[C@H](CCCCN)NC(=O)[C@H](CCC(N)=O)NC(=O)CNC(=O)[C@@H](NC(=O)[C@H](CCCCN)NC(=O)[C@H](CCCCN)NC(=O)[C@H](CC(C)C)NC(=O)[C@H](CCCCN)NC(=O)[C@H](CCC(=O)O)NC(=O)[C@H](CCCCN)NC(=O)[C@@H](NC(=O)[C@@H](N)CCCCN)[C@@H](C)CC)[C@@H](C)CC)C(=O)O [KIKEKLKKIGQKI]
MIC [8]: ≥ 160 µM
MIC [9]: ≥ 160 µM
MIC [10]: ≥ 160 µM

CC[C@H](C)[C@H](NC(=O)[C@H](Cc1cnc[nH]1)NC(=O)[C@H](CCCCN)NC(=O)[C@@H](NC(=O)[C@@H](N)CC(C)C)[C@@H](C)CC)C(=O)N[C@@H](CC(C)C)C(=O)N[C@@H](Cc1cnc[nH]1)C(=O)N[C@@H](CCCN=C(N)N)C(=O)N[C@@H](CC(C)C)C(N)=O [LIKHILHRL]
MIC [11]: ≥ 438 µM
MIC [12]: ≥ 438 µM
MIC [13]: ≥ 438 µM
MIC [14]: ≥ 438 µM
MIC [15]: ≥ 438 µM
MIC [16]: > 438 µM
MIC [17]: ≥ 109 µM
MIC [18]: ≥ 438 µM
MIC [19]: ≥ 438 µM

NC(N)=NCCC[C@H](NC(=O)CNC(=O)[C@H](CCCN=C(N)N)NC(=O)CNC(=O)[C@H](CCCN=C(N)N)NC(=O)CNC(=O)[C@H](CCCN=C(N)N)NC(=O)CNC(=O)[C@@H](N)CCCN=C(N)N)C(=O)NCC(=O)O [RGRGRGRGRG]
MIC [6]: ≥ 92.2 µM
MIC [7]: ≥ 92.2 µM

C[C@@H](O)[C@H](NC(=O)[C@H](Cc1c[nH]c2ccccc12)NC(=O)[C@H](Cc1c[nH]c2ccccc12)NC(=O)[C@H](Cc1ccc(O)cc1)NC(=O)[C@H](CO)NC(=O)[C@H](Cc1c[nH]c2ccccc12)NC(=O)[C@@H](N)Cc1c[nH]c2ccccc12)C(=O)N[C@@H](CCC(N)=O)C(=O)N[C@@H](Cc1c[nH]c2ccccc12)C(N)=O [WWSYWWTQW]
MIC [11]: ≥ 87.5 µM
MIC [12]: ≥ 87.5 µM
MIC [13]: ≥ 87.5 µM
MIC [14]: ≥ 87.5 µM
MIC [15]: ≥ 87.5 µM
MIC [16]: > 87.5 µM
MIC [17]: ≥ 87.5 µM
MIC [18]: ≥ 87.5 µM
MIC [19]: ≥ 87.5 µM
